The results in this text go back to patent US12281149B2, “Modulators of G-protein coupled receptors” (priority 2021, dated 2025).

The structures appear in SMILES notation. *1 amine or outer side, *2 acyl side, *3 side chain or, on linkers, in order; H or OH if unused. Where a SMILES comes first, the peptide text is derived from it. Side-chain parts run from the residue outwards. [ ]: non-standard residue; d: D form. The star is where a group is joined. Isobutyryl(2-(3-CN-5-F-Ph)) = CC(C)(C(=O)*)c1cc(F)cc(C#N)c1; C20 diacid = O=C(O)CCCCCCCCCCCCCCCCCCC(=O)*; γGlu = O=C(O)[C@H](CCC(=O)[*:2])N[*:1]; Gla = N[C@@H](CC(C(=O)O)C(=O)O)C(=O)O; Trx = NC[C@H]1CC[C@H](C(=O)O)CC1; AEEA = NCCOCCOCC(=O)O; Aib = CC(C)(N)C(=O)O; βAla = NCCC(=O)O Bounds are passed on as bounds.

What all share (type): cell-based
In assay [1] the target is T1, GLP-1 receptor (Homo sapiens, UniProt P43220). Briefly: HitHunter cAMP assay, GLP-1 receptor. Particulars: for EC50: CHO cells stably expressing human GLP-1 receptor, cAMP accumulation, 30 min, read-out: EC50 GLP-1R; for Emax: CHO cells, cAMP, normalized to maximum signal from GLP-1 (high) and DMSO (low), read-out: Emax GLP-1R. A general note: Changes in cAMP serve as a functional read-out for many G protein-coupled receptors.

Assay [2] addresses T2, GIP receptor (Homo sapiens, UniProt P48546).
T2 sequence (P48546 22-466): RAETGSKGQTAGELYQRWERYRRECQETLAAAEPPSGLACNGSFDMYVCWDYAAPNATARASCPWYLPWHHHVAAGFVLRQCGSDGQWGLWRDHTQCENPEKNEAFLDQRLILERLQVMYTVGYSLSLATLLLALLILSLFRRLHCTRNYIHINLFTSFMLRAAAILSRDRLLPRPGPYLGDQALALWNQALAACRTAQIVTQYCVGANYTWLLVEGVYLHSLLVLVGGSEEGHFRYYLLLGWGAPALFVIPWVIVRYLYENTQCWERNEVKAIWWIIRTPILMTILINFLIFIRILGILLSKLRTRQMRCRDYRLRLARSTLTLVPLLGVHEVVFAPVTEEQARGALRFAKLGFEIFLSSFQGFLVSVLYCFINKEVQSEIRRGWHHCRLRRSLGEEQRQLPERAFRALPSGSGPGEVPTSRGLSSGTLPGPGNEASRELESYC
Briefly: HitHunter cAMP assay, GIP receptor. Particulars: for EC50: CHO cells stably expressing GIP receptor, cAMP accumulation, 30 min, read-out: EC50 GIP-1R; for Emax: CHO cells, cAMP, normalized to maximum signal from GIP (high) and DMSO (low), read-out: Emax GIP-1R.

Assay [3] deals with T2, GIP receptor. Nature of the assay: PathHunter β-arrestin assay, GIP receptor. Further details: host or cells: PathHunter CHO-K1 GIPR β-Arrestin Cell Line. To be noted: β-arrestin-2 recruitment, PathHunter CHO-K1 GIPR β-Arrestin Cell Line, 90 min at 37° C.; normalized to GIP; read-out: GIPR β Arrestin EC50. (Arrestin recruitment assays detect the binding of arrestin to an activated receptor.)

Assay [4] addresses T1, GLP-1 receptor. Nature of the assay: PathHunter β-arrestin assay, GLP-1 receptor. Further details: host or cells: PathHunter CHO-K1 GLP1R β-Arrestin Cell Line. Particulars: β-arrestin-2 recruitment, PathHunter CHO-K1 GLP1R β-Arrestin Cell Line, 90 min at 37° C.; normalized to GLP-1; read-out: GLP-1R β Arrestin EC50.

T1 sequence (P43220 24-463): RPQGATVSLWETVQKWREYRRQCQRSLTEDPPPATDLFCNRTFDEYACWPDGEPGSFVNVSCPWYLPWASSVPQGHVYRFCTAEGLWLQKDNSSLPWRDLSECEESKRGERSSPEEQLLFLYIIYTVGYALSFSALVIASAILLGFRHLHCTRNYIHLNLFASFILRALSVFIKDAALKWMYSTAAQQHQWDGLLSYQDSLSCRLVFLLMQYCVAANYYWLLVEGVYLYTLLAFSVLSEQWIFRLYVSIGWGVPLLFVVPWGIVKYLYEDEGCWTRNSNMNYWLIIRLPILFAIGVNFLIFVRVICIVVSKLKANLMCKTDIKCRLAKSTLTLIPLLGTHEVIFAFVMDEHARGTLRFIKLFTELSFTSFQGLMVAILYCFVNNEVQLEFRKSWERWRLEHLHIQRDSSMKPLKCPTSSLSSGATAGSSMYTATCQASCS

Usually EC50 stands for the midpoint of the concentration-response curve. The Emax is the greatest response seen or fitted, relative to the assay's reference. As for `CC[C@H](C)[C@H](NC(=O)[C@H](CC(C)C)NC(=O)[C@H](Cc1c[nH]c2ccccc12)NC(=O)[C@H](CCC(N)=O)NC(=O)[C@@H](NC(=O)[C@H](Cc1ccccc1)NC(=O)[C@H](C)NC(=O)[C@H](CCCCNC(=O)CC[C@H](NC(=O)CC[C@H](NC(=O)CC[C@H](NC(=O)[C@H]1CC[C@H](CNC(=O)CCCCCCCCCCCCCCCCCCC(=O)O)CC1)C(=O)O)C(=O)O)C(=O)O)NC(=O)[C@H](CCC(N)=O)NC(=O)[C@H](C)NC(=O)[C@@H](NC(=O)[C@H](CCCCN)NC(=O)[C@H](CC(=O)O)NC(=O)[C@H](CC(C)C)NC(=O)C(C)(C)NC(=O)[C@@H](NC(=O)[C@H](CO)NC(=O)[C@H](Cc1ccc(O)cc1)NC(=O)[C@H](CC(=O)O)NC(=O)[C@H](CO)NC(=O)[C@@H](NC(=O)[C@H](Cc1ccccc1)NC(=O)[C@@H](NC(=O)CNC(=O)[C@H](CCC(=O)O)NC(=O)CCNC(=O)C(C)(C)c1cc(F)cc(C#N)c1)[C@@H](C)O)[C@@H](C)O)[C@@H](C)CC)[C@@H](C)CC)C(C)C)C(=O)N[C@@H](C)C(=O)NCC(=O)NCC(=O)N1CCC[C@H]1C(=O)N[C@@H](CO)C(=O)N[C@@H](CO)C(=O)NCC(=O)N[C@@H](C)C(=O)N1CCC[C@H]1C(=O)N1CCC[C@H]1C(=O)N1CCC[C@H]1C(=O)N[C@@H](CO)C(N)=O` [Compound 107] ({Isobutyryl(2-(3-CN-5-F-Ph))-βAla}-EGTFTSDYSI[Aib]LDKIAQK([γGlu-γGlu-γGlu-Trx-C20 diacid])AFVQWLIAGGPSSGAPPPS-NH2), the half-maximal effective concentration (EC50) on GLP-1 receptor [1] was 0.1 to 1 nM; at GIP receptor [2], 1 to 10 nM; on GIP receptor [3], less than 1000 nM; at GLP-1 receptor [4] it was greater than 1000 nM. The Emax turned out to be 95% on GLP-1 receptor [1] and 106% on GIP receptor [2].

Regarding `CC[C@H](C)[C@H](NC(=O)[C@H](CC(C)C)NC(=O)[C@H](Cc1c[nH]c2ccccc12)NC(=O)[C@H](CCC(N)=O)NC(=O)[C@@H](NC(=O)[C@H](Cc1ccccc1)NC(=O)[C@H](C)NC(=O)[C@H](CCCCNC(=O)COCCOCCNC(=O)COCCOCCNC(=O)CC[C@H](NC(=O)CCCCCCCCCCCCCCCCCCC(=O)O)C(=O)O)NC(=O)[C@H](CCC(N)=O)NC(=O)[C@H](C)NC(=O)[C@@H](NC(=O)[C@H](CCCCN)NC(=O)[C@H](CC(=O)O)NC(=O)[C@H](CC(C)C)NC(=O)C(C)(C)NC(=O)[C@@H](NC(=O)[C@H](CO)NC(=O)[C@H](Cc1ccc(O)cc1)NC(=O)[C@H](CC(=O)O)NC(=O)[C@H](CO)NC(=O)[C@@H](NC(=O)[C@H](Cc1ccccc1)NC(=O)[C@@H](NC(=O)CNC(=O)[C@H](CC(=O)O)NC(=O)CCNC(=O)C(C)(C)c1cc(F)cc(C#N)c1)[C@@H](C)O)[C@@H](C)O)[C@@H](C)CC)[C@@H](C)CC)C(C)C)C(=O)N[C@@H](C)C(=O)NCC(=O)NCC(=O)N1CCC[C@H]1C(=O)N[C@@H](CO)C(=O)N[C@@H](CO)C(=O)NCC(=O)N[C@@H](C)C(=O)N1CCC[C@H]1C(=O)N1CCC[C@H]1C(=O)N1CCC[C@H]1C(=O)N[C@@H](CO)C(N)=O` [Compound 108] ({Isobutyryl(2-(3-CN-5-F-Ph))-βAla}-DGTFTSDYSI[Aib]LDKIAQK([AEEA-AEEA-γGlu-C20 diacid])AFVQWLIAGGPSSGAPPPS-NH2), the EC50 on GLP-1 receptor [1] was less than 0.1 nM; on GIP receptor [2] it was 1 to 10 nM; on GIP receptor [3], less than 1000 nM; on GLP-1 receptor [4], greater than 1000 nM. The maximum response (Emax) on GLP-1 receptor [1] was found to be 93%; on GIP receptor [2], 95%.

Turning to `CC[C@H](C)[C@H](NC(=O)[C@H](CC(C)C)NC(=O)[C@H](Cc1c[nH]c2ccccc12)NC(=O)[C@H](CCC(N)=O)NC(=O)[C@@H](NC(=O)[C@H](Cc1ccccc1)NC(=O)[C@H](C)NC(=O)[C@H](CCCCNC(=O)COCCOCCNC(=O)COCCOCCNC(=O)CC[C@H](NC(=O)CCCCCCCCCCCCCCCCCCC(=O)O)C(=O)O)NC(=O)[C@H](CCC(N)=O)NC(=O)[C@H](C)NC(=O)[C@@H](NC(=O)[C@H](CCCCN)NC(=O)[C@H](CC(=O)O)NC(=O)[C@H](CC(C)C)NC(=O)C(C)(C)NC(=O)[C@@H](NC(=O)[C@H](CO)NC(=O)[C@H](Cc1ccc(O)cc1)NC(=O)[C@H](CC(=O)O)NC(=O)[C@H](CO)NC(=O)[C@@H](NC(=O)[C@H](Cc1ccccc1)NC(=O)[C@@H](NC(=O)CNC(=O)[C@@H](CCC(=O)O)NC(=O)CCNC(=O)C(C)(C)c1cc(F)cc(C#N)c1)[C@@H](C)O)[C@@H](C)O)[C@@H](C)CC)[C@@H](C)CC)C(C)C)C(=O)N[C@@H](C)C(=O)NCC(=O)NCC(=O)N1CCC[C@H]1C(=O)N[C@@H](CO)C(=O)N[C@@H](CO)C(=O)NCC(=O)N[C@@H](C)C(=O)N1CCC[C@H]1C(=O)N1CCC[C@H]1C(=O)N1CCC[C@H]1C(=O)N[C@@H](CO)C(N)=O` [Compound 109] ({Isobutyryl(2-(3-CN-5-F-Ph))-βAla}-[dE]GTFTSDYSI[Aib]LDKIAQK([AEEA-AEEA-γGlu-C20 diacid])AFVQWLIAGGPSSGAPPPS-NH2), the 50% effective concentration (EC50) on GLP-1 receptor [1] was 10 to 100 nM; at GIP receptor [2], 10 to 100 nM; on GIP receptor [3], greater than 1000 nM; on GLP-1 receptor [4] it was greater than 1000 nM. Besides, the maximum response (Emax) at GLP-1 receptor [1] worked out at 82%; on GIP receptor [2], 96%.

In the case of `CC[C@H](C)[C@H](NC(=O)[C@H](CC(C)C)NC(=O)[C@H](Cc1c[nH]c2ccccc12)NC(=O)[C@H](CCC(N)=O)NC(=O)[C@@H](NC(=O)[C@H](Cc1ccccc1)NC(=O)[C@H](C)NC(=O)[C@H](CCCCNC(=O)COCCOCCNC(=O)COCCOCCNC(=O)CC[C@H](NC(=O)CCCCCCCCCCCCCCCCCCC(=O)O)C(=O)O)NC(=O)[C@H](CCC(N)=O)NC(=O)[C@H](C)NC(=O)[C@@H](NC(=O)[C@H](CCCCN)NC(=O)[C@H](CC(=O)O)NC(=O)[C@H](CC(C)C)NC(=O)C(C)(C)NC(=O)[C@@H](NC(=O)[C@H](CO)NC(=O)[C@H](Cc1ccc(O)cc1)NC(=O)[C@H](CC(=O)O)NC(=O)[C@H](CO)NC(=O)[C@@H](NC(=O)[C@H](Cc1ccccc1)NC(=O)[C@@H](NC(=O)CNC(=O)CC[C@H](NC(=O)CCNC(=O)C(C)(C)c1cc(F)cc(C#N)c1)C(=O)O)[C@@H](C)O)[C@@H](C)O)[C@@H](C)CC)[C@@H](C)CC)C(C)C)C(=O)N[C@@H](C)C(=O)NCC(=O)NCC(=O)N1CCC[C@H]1C(=O)N[C@@H](CO)C(=O)N[C@@H](CO)C(=O)NCC(=O)N[C@@H](C)C(=O)N1CCC[C@H]1C(=O)N1CCC[C@H]1C(=O)N1CCC[C@H]1C(=O)N[C@@H](CO)C(N)=O` [Compound 110] ({Isobutyryl(2-(3-CN-5-F-Ph))-βAla-γGlu}-GTFTSDYSI[Aib]LDKIAQK([AEEA-AEEA-γGlu-C20 diacid])AFVQWLIAGGPSSGAPPPS-NH2), the EC50 on GLP-1 receptor [1] was 100 to 1000 nM; at GIP receptor [2], 100 to 1000 nM; at GIP receptor [3] it was greater than 1000 nM; on GLP-1 receptor [4], greater than 1000 nM. Besides, the Emax at GLP-1 receptor [1] worked out at 31%; on GIP receptor [2] it was 32%.

Take `CC[C@H](C)[C@H](NC(=O)[C@H](CC(C)C)NC(=O)[C@H](Cc1c[nH]c2ccccc12)NC(=O)[C@H](CCC(N)=O)NC(=O)[C@@H](NC(=O)[C@H](Cc1ccccc1)NC(=O)[C@H](C)NC(=O)[C@H](CCCCNC(=O)COCCOCCNC(=O)COCCOCCNC(=O)CC[C@H](NC(=O)CCCCCCCCCCCCCCCCCCC(=O)O)C(=O)O)NC(=O)[C@H](CCC(N)=O)NC(=O)[C@H](C)NC(=O)[C@@H](NC(=O)[C@H](CCCCN)NC(=O)[C@H](CC(=O)O)NC(=O)[C@H](CC(C)C)NC(=O)C(C)(C)NC(=O)[C@@H](NC(=O)[C@H](CO)NC(=O)[C@H](Cc1ccc(O)cc1)NC(=O)[C@H](CC(=O)O)NC(=O)[C@H](CO)NC(=O)[C@@H](NC(=O)[C@H](Cc1ccccc1)NC(=O)[C@@H](NC(=O)CNC(=O)[C@H](CC(C(=O)O)C(=O)O)NC(=O)CCNC(=O)C(C)(C)c1cc(F)cc(C#N)c1)[C@@H](C)O)[C@@H](C)O)[C@@H](C)CC)[C@@H](C)CC)C(C)C)C(=O)N[C@@H](C)C(=O)NCC(=O)NCC(=O)N1CCC[C@H]1C(=O)N[C@@H](CO)C(=O)N[C@@H](CO)C(=O)NCC(=O)N[C@@H](C)C(=O)N1CCC[C@H]1C(=O)N1CCC[C@H]1C(=O)N1CCC[C@H]1C(=O)N[C@@H](CO)C(N)=O` [Compound 111] ({Isobutyryl(2-(3-CN-5-F-Ph))-βAla}-[Gla]GTFTSDYSI[Aib]LDKIAQK([AEEA-AEEA-γGlu-C20 diacid])AFVQWLIAGGPSSGAPPPS-NH2): the concentration giving a half-maximal response (EC50) is 1 to 10 nM at GLP-1 receptor [1], 10 to 100 nM on GIP receptor [2], greater than 1000 nM on GIP receptor [3] and greater than 1000 nM at GLP-1 receptor [4]. The Emax at GLP-1 receptor [1] was determined as 95%; on GIP receptor [2], 105%.
